Some targets named below: SARS-CoV PLpro (Severe acute respiratory syndrome coronavirus, UniProt P0C6X7); HCV NS3/4A (Hepatitis C virus genotype 1a, UniProt P27958); SARS-CoV 3CLpro (Severe acute respiratory syndrome coronavirus, UniProt P0C6X7).
Assay type in all cases: biochemical

Chain of HCV NS3/4A (P27958 1027-1657): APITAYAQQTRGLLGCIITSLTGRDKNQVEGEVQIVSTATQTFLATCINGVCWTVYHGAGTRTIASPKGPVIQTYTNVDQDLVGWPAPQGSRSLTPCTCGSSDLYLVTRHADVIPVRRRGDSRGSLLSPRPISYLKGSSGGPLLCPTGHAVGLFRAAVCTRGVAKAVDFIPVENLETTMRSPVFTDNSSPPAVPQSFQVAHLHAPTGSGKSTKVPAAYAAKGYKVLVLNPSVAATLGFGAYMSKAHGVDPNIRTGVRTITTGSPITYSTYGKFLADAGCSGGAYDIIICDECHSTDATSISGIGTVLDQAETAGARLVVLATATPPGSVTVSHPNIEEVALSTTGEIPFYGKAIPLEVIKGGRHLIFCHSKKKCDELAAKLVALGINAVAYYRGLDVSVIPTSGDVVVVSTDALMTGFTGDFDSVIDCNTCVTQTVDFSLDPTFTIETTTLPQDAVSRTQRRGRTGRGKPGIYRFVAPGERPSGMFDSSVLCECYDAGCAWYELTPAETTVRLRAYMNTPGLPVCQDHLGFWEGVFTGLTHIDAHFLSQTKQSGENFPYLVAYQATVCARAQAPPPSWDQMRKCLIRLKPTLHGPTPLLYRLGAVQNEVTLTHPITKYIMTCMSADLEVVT
Chain of HCV NS3/4A (P27958 1658-1711 partner limits assumed): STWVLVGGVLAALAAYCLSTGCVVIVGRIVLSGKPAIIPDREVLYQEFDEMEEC

As to `OCCS` [β-MCE, β-mercaptoethanol], the results for the Kcat/KM ratio on SARS-CoV PLpro, at HCV NS3/4A and on SARS-CoV 3CLpro were 1.2, 1.4 and 1.2, respectively. Besides, the values for the Km on SARS-CoV PLpro, on HCV NS3/4A and on SARS-CoV 3CLpro were 117 ± 7 µM, 2.5 ± 0.1 µM and 14.8 ± 1.2 µM, respectively. For the same compound, the figures for the Vmax on SARS-CoV PLpro, at HCV NS3/4A and at SARS-CoV 3CLpro were 438 ± 30 RFU/10 min, 161 ± 8 RFU/10 min and 453 ± 24 RFU/10 min, respectively.

Turning to `O[C@@H](CS)[C@@H](O)CS` (racemic) [DTT, dithiothreitol], the results for the Vmax at SARS-CoV PLpro, at HCV NS3/4A and on SARS-CoV 3CLpro were 813 ± 36 RFU/10 min, 181 ± 21 RFU/10 min and 435 ± 12 RFU/10 min, respectively. Besides, the “increase of KM” value at SARS-CoV PLpro is 4 fold. Moreover, the “change of enzyme efficiency (Kcat/KM)” value on HCV NS3/4A is on record as 1.6 fold.

For the compound `N[C@@H](CCC(=O)N[C@@H](CS)C(=O)NCC(=O)O)C(=O)O` [GSH, reduced glutathione], at SARS-CoV PLpro, the Kcat/KM ratio was determined as 1.0, the Vmax was 449 ± 14 RFU/10 min and the “increase of KM” value was found to be 1.5 fold. For the same compound, on HCV NS3/4A, the Kcat/KM ratio amounted to 1.5 and the Vmax is recorded as 151 ± 8 RFU/10 min. At SARS-CoV 3CLpro, the Kcat/KM ratio is 1.2, the Km came to 16.1 ± 0.8 µM and the Vmax is listed as 516 ± 9 RFU/10 min.

Turning to `O=C(O)CCP(CCC(=O)O)CCC(=O)O` [TCEP, tris(2-carboxyethyl)phosphine], the values for the Vmax at SARS-CoV PLpro, on HCV NS3/4A and on SARS-CoV 3CLpro were 441 ± 41 RFU/10 min, 75 ± 15 RFU/10 min and 472 ± 18 RFU/10 min, respectively. At SARS-CoV PLpro, the “increase of KM” value was determined as 2.5 fold. In addition, the Kcat/KM ratio on HCV NS3/4A was found to be 0.5.
